In publication PMC6262408, “Recovery of the Peptidoglycan Turnover Product Released by the Autolysin Atl in Staphylococcus aureus Involves the Phosphotransferase System Transporter MurP and the Novel 6-phospho-N-acetylmuramidase MupG” (Frontiers in Microbiology, 2018):

Biological target: T1, MupG (Staphylococcus aureus, UniProt A0A0H2XHV5)
T1 sequence (A0A0H2XHV5 1-351): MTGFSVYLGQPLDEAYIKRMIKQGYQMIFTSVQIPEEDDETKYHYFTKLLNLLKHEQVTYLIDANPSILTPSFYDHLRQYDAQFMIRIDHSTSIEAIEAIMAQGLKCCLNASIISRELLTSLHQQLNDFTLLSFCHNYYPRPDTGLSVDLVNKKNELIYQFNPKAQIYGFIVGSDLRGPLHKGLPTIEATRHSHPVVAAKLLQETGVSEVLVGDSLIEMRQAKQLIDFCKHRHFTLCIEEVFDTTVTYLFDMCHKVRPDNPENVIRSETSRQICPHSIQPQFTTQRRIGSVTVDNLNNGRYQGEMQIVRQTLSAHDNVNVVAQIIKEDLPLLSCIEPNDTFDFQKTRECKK
Test: LC-MS of hydrolysis by recombinant enzyme
Assay type: biochemical
Settings: substrate in acetone extract of ΔmupG cytosol; 1 μg enzyme, 2.5 h, 37 °C; products MurNAc 6P and GlcNAc

SMILES: CC(=O)N[C@H]1[C@H](O[C@H]2[C@H](O)[C@@H](NC(C)=O)C(O)O[C@@H]2CO)O[C@H](COP(=O)(O)O)[C@@H](O)[C@@H]1O[C@H](C)C(=O)O (stereo partly shown) [MurNAc 6P-GlcNAc]
- LC-MS of hydrolysis by recombinant enzyme: recombinantly produced MupG cleaved MurNAc 6P-GlcNAc, releasing MurNAc 6P and GlcNAc
